ChEMBL document CHEMBL1201862, “PubChem BioAssay data set” (2004)
Blank lines part the entries; values can stand above or below the molecule they belong to. The source made the active and inactive calls.

Assays:
[1] = inhibitors of intracellular T. cruzi replication, confirmation, NIH3T3 host cells, beta-gal luminescence (AID 2044); type: functional, cell-based;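 further: intracellular parasites grown in NIH/3T3 mouse fibroblasts as host cells; luminescent beta-galactosidase reporter signal from transgenic T. cruzi replicating inside host cells; inhibitors lower the luminescence signal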
[2] = cytotoxicity toward NIH3T3 fibroblasts, dose response, counter-screen, cell-based, ATP luminescence, mouse fibroblasts (AID 2010); type: functional;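 further: cells exposed to compound for about 90 hours before reading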
[3] = Luminescence Cell-Based Dose Retest to Confirm Inhibitors of Cancer Stem Cells. [Related pubchem assays (depositor defined):AID2717, AID2721]; type: functional; conditions: Homo sapiens
[4] = molecular target: Heat shock protein HSP 90-alpha (Homo sapiens, UniProt P07900); type: functional, organism-based
[5] = molecular target: T1, Corticotropin-releasing factor receptor 2/Corticotropin-releasing factor-binding protein (Homo sapiens, UniProt P24387+Q13324); test: Dose Response confirmation of uHTS hits for small molecule antagonists of the CRF-binding protein and CRF-R2 receptor complex.; type: functional; conditions: read-out: IC50_Mean
T1 sequence (Q13324 whole entry): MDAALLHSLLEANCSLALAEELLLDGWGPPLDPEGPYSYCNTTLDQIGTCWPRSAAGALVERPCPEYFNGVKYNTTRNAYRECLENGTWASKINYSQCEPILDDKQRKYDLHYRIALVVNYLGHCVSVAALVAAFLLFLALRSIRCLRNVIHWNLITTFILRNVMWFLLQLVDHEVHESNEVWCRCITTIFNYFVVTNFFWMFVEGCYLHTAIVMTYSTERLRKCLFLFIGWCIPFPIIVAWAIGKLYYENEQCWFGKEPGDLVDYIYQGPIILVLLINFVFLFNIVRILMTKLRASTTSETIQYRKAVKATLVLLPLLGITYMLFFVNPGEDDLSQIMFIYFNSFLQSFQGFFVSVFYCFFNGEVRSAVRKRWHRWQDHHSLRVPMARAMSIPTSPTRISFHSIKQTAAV
T1 sequence (P24387 whole entry): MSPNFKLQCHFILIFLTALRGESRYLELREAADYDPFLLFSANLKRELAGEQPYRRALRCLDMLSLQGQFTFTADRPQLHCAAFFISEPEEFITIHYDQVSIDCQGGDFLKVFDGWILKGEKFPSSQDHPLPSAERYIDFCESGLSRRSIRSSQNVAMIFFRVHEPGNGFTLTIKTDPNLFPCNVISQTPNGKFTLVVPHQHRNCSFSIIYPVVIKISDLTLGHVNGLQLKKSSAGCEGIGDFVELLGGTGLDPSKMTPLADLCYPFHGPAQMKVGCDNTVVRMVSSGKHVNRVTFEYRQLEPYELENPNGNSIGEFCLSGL

[6] = molecular target: T1, Corticotropin-releasing factor receptor 2/Corticotropin-releasing factor-binding protein; test: activators of CRF receptor 2 with binding protein – uHTS hits, confirmation (AID 602473); type: functional; conditions: read-out: EC50_Mean
[7] = CRF-BP/CRF-R2 complex antagonists, dose response, cell-based, uHTS hits, 384-well (AID 651639); type: functional, Homo sapiens; conditions: read-out: IC50_Mean
[8] = molecular target: T2, Microphthalmia-associated transcription factor (Homo sapiens, UniProt O75030); test: TRPM1 promoter luciferase signal decrease, dose response, MITF inhibitor project, cell-based, SK-MEL-5, cherry-picked, set 3 (AID 493073); type: functional
T2 sequence (O75030 whole entry): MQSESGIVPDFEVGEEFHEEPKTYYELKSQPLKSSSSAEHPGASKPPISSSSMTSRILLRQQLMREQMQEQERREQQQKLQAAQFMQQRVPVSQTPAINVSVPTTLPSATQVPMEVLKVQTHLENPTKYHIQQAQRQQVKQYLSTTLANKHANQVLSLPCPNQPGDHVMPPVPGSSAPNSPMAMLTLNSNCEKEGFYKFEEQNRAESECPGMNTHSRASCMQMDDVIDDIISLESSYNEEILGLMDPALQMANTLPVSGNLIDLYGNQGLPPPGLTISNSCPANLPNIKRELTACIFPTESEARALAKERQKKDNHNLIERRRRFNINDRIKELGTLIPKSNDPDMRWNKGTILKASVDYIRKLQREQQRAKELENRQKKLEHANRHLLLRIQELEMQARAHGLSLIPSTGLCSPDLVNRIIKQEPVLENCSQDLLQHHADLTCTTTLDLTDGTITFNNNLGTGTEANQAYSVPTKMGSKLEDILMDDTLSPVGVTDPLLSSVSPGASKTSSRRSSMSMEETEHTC

Cytochrome P450 2C19 = Cytochrome P450 2C19 (Homo sapiens, UniProt P33261); test: Cytochrome panel assay with activity outcomes. Panel member name: p450-cyp2c19 Compounds with AC50 equal or less than 10 uM are considered active; type: functional
Cytochrome P450 3A4 = Cytochrome P450 3A4 (Homo sapiens, UniProt P08684);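 further: CYP3A4 tested as one member of a cytochrome P450 panel screen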
Cytochrome P450 2C9 = Cytochrome P450 2C9 (Homo sapiens, UniProt P11712)
[9] = molecular target: T3, Heat shock factor protein 1 (Mus musculus, UniProt P38532); test: HSF1 potentiators in luciferase reporter cells, confirmation, cell-based, NIH3T3, luminescence, dose retest (AID 435004); type: functional;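 further: stress induced by proteasome inhibitor MG132 added 30 min after compound; luciferase reporter driven by HSF1 response element in NIH3T3 cells; actives raise luminescence as potentiators of the MG132 stress response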
T3 sequence (P38532 whole entry): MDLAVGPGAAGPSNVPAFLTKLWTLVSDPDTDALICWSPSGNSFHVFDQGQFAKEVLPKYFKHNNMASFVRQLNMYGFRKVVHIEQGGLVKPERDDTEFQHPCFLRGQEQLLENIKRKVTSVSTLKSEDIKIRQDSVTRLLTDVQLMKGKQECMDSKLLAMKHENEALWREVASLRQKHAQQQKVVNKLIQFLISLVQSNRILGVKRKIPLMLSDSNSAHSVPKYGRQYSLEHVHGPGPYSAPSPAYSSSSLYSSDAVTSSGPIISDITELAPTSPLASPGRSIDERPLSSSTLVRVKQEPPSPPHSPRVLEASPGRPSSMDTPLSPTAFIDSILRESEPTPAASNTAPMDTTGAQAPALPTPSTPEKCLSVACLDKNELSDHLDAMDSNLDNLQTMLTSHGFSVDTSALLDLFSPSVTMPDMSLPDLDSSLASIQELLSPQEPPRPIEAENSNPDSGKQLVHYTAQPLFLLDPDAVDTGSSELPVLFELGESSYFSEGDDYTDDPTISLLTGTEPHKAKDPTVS

[10] = inhibitors of HIV Env-driven cell fusion, dose response, cherry-pick (AID 652057); type: functional, cell-based
[11] = CEM21 lymphoblast cell cytotoxicity, dose response, cytotoxicity control for viral fusion inhibitor project, CellTiter-Glo luminescence, cherry-picked (AID 652042); type: functional, cell-based;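 further: potency for signal decrease meaning cytotoxicity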
[12] = ZM109 Env clade C HIV-1 fusion inhibitors, dose response, HeLa effector, CEM target cells, luciferase, cherry-pick (AID 652058); type: functional, cell-based
[13] = off-target signal loss in HeLa-CEM21 co-culture – HeLa F-luc CTL cells, cherry-picked, counter-screen for HIV-1 Env fusion inhibitor project, dose response (AID 652040); type: functional, cell-based;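 further: potency for signal decrease marking cytotoxic or nonspecific inhibition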
[14] = inhibitors of clade B AD8 Env fusion, dose response, cell-based, cherry-pick (AID 652062); type: functional;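 further: luciferase signal from cell-cell fusion driven by HIV-1 clade B AD8 Env; potency is for inhibitors of fusion seen as a drop in luminescence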
BJ [15] = test: cytotoxicity toward BJ-TERT fibroblasts, dose response, cell-based, RAS-independent, luminescence (AID 1933); type: functional; conditions: Homo sapiens
BJ [16] = test: cells; type: functional, cell-based; conditions: Homo sapiens
BJ [17] = test: cytotoxicity toward BJ-TERT-LT-ST fibroblasts, dose response, cell-based, RAS-independent, luminescence (AID 1935); type: functional; conditions: Homo sapiens;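 further: BJ fibroblasts immortalized with TERT plus LT and ST oncogenes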
[18] = cytotoxicity toward DRD oncogenic fibroblasts, dose response, cell-based, non-viral oncogenic, luminescence (AID 1934); type: functional; conditions: Homo sapiens
Cytochrome P450 1A2 = molecular target: T4, Cytochrome P450 1A2 (Homo sapiens, UniProt P05177);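 further: PubChem cytochrome P450 panel assay, CYP1A2 panel member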
T4 sequence (P05177 whole entry): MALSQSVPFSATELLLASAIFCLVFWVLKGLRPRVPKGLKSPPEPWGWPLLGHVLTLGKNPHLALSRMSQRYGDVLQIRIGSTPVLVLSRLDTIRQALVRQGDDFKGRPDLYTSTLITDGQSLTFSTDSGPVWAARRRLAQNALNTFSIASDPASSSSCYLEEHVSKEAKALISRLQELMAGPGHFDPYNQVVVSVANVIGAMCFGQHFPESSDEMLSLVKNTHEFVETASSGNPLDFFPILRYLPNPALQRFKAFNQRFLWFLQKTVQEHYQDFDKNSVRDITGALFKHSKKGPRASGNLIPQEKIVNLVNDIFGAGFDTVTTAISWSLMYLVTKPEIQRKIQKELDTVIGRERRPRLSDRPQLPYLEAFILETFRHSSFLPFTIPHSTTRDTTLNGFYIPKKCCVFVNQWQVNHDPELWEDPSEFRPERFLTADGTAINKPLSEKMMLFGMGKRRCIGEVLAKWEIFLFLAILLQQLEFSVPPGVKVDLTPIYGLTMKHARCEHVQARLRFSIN

[19] = molecular target: Luciferin 4-monooxygenase (Photinus pyralis, UniProt P08659); test: firefly luciferase enzyme inhibitors, dose response, biochemical, luminescence (AID 1891)
[20] = Luminescence Cell-Based Dose Confirmation HTS to Identify Inhibitors of Platelet Dense Granule Release. [Related pubchem assays: 1663 (Primary HTS), 1678 (Summary of Project)]; type: functional
Cytochrome P450 2D6 = Cytochrome P450 2D6 (Homo sapiens, UniProt P10635);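 further: CYP2D6 member of a cytochrome P450 panel assay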
Cytochrome P450 2D6, sequence (P10635 whole entry): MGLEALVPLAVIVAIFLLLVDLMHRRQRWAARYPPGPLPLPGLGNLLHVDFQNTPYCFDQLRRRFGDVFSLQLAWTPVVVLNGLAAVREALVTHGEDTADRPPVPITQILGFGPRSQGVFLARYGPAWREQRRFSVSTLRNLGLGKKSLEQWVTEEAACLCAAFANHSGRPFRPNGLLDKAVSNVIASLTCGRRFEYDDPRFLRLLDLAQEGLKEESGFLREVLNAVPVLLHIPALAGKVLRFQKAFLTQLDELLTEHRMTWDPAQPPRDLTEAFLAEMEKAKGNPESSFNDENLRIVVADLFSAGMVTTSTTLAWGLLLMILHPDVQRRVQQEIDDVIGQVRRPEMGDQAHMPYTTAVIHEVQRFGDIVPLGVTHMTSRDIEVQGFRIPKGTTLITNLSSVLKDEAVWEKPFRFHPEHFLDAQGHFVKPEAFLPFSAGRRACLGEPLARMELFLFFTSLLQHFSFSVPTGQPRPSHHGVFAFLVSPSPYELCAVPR

Cytochrome P450 2C9, sequence (P11712 whole entry): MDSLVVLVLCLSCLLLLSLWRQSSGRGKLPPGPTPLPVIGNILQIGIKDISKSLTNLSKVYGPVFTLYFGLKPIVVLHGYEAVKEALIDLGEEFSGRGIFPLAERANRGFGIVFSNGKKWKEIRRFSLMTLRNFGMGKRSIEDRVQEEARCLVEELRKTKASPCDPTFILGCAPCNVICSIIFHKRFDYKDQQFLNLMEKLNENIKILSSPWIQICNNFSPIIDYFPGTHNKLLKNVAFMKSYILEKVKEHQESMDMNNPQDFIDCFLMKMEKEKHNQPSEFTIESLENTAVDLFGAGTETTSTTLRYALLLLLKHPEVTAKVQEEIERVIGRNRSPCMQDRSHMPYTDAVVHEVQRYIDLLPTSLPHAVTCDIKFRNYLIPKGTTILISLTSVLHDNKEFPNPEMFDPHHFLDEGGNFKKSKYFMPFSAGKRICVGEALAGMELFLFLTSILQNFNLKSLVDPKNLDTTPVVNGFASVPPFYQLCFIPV
Cytochrome P450 2C19, sequence (P33261 whole entry): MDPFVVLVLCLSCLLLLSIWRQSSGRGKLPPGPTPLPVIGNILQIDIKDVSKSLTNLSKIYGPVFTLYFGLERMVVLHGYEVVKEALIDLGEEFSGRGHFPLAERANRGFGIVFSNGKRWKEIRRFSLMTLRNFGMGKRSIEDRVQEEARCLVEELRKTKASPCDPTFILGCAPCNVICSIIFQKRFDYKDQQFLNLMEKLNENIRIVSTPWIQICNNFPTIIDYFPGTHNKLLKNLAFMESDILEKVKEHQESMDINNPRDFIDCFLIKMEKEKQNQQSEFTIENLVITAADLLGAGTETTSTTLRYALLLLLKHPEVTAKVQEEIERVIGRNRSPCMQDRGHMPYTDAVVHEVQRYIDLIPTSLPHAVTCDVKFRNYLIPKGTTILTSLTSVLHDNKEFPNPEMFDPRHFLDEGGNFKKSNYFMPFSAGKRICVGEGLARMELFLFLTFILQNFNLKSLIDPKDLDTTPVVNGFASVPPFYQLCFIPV
Cytochrome P450 3A4, sequence (P08684 whole entry): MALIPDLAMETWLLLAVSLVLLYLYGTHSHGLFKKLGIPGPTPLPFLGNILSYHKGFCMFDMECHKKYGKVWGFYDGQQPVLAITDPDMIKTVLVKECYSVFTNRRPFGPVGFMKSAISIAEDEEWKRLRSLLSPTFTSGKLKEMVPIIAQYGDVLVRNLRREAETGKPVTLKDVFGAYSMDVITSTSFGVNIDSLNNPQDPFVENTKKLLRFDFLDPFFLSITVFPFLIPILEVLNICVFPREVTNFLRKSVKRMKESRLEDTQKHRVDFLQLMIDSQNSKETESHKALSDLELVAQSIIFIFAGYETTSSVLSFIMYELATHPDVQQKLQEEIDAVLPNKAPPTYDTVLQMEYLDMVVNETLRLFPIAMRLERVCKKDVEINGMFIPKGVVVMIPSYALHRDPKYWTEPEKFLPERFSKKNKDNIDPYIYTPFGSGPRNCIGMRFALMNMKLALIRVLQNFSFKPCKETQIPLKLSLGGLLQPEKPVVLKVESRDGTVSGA
Luciferin 4-monooxygenase, sequence (P08659 whole entry): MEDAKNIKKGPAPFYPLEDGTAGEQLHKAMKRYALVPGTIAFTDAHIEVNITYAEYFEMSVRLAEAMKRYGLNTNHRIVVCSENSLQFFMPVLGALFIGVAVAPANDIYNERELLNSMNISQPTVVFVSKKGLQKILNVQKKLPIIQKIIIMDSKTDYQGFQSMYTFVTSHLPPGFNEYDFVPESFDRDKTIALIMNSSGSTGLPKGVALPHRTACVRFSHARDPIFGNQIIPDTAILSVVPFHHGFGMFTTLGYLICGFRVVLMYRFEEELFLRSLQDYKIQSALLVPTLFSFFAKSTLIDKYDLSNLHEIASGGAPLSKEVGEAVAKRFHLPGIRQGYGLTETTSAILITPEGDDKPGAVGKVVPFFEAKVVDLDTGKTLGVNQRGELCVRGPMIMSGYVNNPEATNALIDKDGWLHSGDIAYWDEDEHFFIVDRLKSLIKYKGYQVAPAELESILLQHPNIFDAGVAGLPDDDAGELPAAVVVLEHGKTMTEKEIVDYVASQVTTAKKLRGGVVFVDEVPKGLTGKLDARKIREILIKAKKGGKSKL

SMILES: CCc1ccc(-c2cc(C(=O)N3N=C(C(F)F)CC3(O)C(F)F)c3ccccc3n2)cc1 (stereo not drawn)
EC50 [1]: 2.9 µM (active)
EC50 [2]: > 60 µM (not active)
AC50 [3]: 5.74 µM (active)
AC50 [4]: 4.04 µM (active)

IC50 [5]: 12 µM (active)
EC50 [6]: > 53 µM (inactive)
IC50 [7]: 14.5 µM (active)
SMILES: COc1ccc([N+](=O)[O-])cc1NCc1ccccc1

SMILES: Cc1ccc2c(C(=O)CCl)c(C)[nH]c2c1
EC50 [1]: 3.94 µM (active)
EC50 [2]: 11.3 µM (active)
AC50 [8]: 8.17 µM (active)

IC50 [5]: 3.26 µM (active)
EC50 [6]: > 53 µM (inactive)
IC50 [7]: > 20 µM (inactive)
SMILES: CCN(CC)S(=O)(=O)c1ccc(Cl)c(NC(=O)c2cc(Cl)cc(Cl)c2)c1

AC50 (Cytochrome P450 2C19): inconclusive
AC50 (Cytochrome P450 3A4): 15.8 µM (inconclusive)
AC50 (Cytochrome P450 2C9): inconclusive
SMILES: C/C(Cl)=C\Cn1c(N2CCCC2)nc2c1c(=O)[nH]c(=O)n2C

SMILES: Cc1ccc(C(C(=O)NC2CCCCC2)N(C(=O)Cc2c[nH]c3ccccc23)c2ccccc2)o1 (stereo not drawn)
EC50 [1]: 1.6 µM (active)
EC50 [2]: > 60 µM (not active)
EC50 [9]: > 260 µM (inactive)
AC50 [10]: 4.14 µM (active)
AC50 [11]: 47.4 µM (active)
AC50 [12]: 2.63 µM (active)
AC50 [13]: 10.3 µM (active)
AC50 [14]: 6.79 µM (active)

SMILES: O=C(CCl)Nc1ccc(Oc2cnc3ccccc3n2)cc1
EC50 (BJ [15]): 6.36 µM (active)
EC50 (BJ [16]): > 150 µM (not active)
EC50 (BJ [17]): > 75 µM (inconclusive)
EC50 [18]: 16.9 µM (active)
AC50 (Cytochrome P450 1A2): 8.91 µM (inconclusive)
AC50 (Cytochrome P450 2C9): inconclusive

SMILES: Cc1nc2ccccc2n1CC(=O)NCc1ccccc1
AC50 [13]: > 70 µM (inactive)
AC50 [14]: 16.8 µM (active)

SMILES: O=C(NC(=O)c1ccccc1)Nc1ccccn1
EC50 [19]: 4.17 µM (active)
EC50 [20]: 2.1 µM (active)
AC50 [10]: 2.44 µM (active)
AC50 [11]: 39.1 µM (active)
AC50 [12]: 37.7 µM (active)
AC50 [13]: 9.35 µM (active)
AC50 [14]: 6.09 µM (active)

AC50 (Cytochrome P450 2D6): 15.8 µM (inconclusive)
AC50 (Cytochrome P450 2C9): inconclusive
SMILES: C=CCNc1nc(SCC=C)nc2ccsc12

AC50 (Cytochrome P450 2C19; read-out: AC50): 8.91 µM (inconclusive)
AC50 (Cytochrome P450 2C9): inconclusive
SMILES: Cc1nc(-c2cccnc2)sc1C(=O)Nc1ccc(F)cc1F
